According to patent US20240117303A1, “METHODS AND COMPOSITIONS FOR GENERATING HUMAN MIDBRAIN DOPAMINERGIC NEURONS FROM NEURAL PROGENITOR CELLS” (Trailhead Biosystems Inc., priority 2022, published 2024):
Entries after “also recorded” stand apart in the source; their conditions may differ.

Key:
Type in all cases: cell-based, human
stage 3 immature neurons = assay: HD-DoE 8-factor experiment for stage 4 recipe (FIG. 27, 28, 31)
How it was run: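 Stage 3 cells treated 4 days with combinatorial matrices including CHIR99021, BDNF, GDNF, Rosiglitazone, GW7647, DBZ and heparin, then gene expression (NR4A2, PITX3, TH) measured. Dropout tests removed each of six finalized factors singly, comparing NR4A2 and PITX3 against the full set.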

[1] = tested on: stage 2 neural progenitors; assay: HD-DoE 12-factor model for stage 3 recipe (FIG. 19-23, 29)
[2] = tested on: stage 1 neural stem cells; assay: HD-DoE 12-factor experiment for stage 2 recipe (first model, FIG. 5-7, 12); details: for factor contribution: positive impact
Source text: To further guide the differentiation of midbrain-committed neural stem cells to neural progenitor cells at stage 2, we performed an additional HD-DoE experiment. We thereby obtained additional gene regulatory models that were used for preparation of differentiation protocol. The basis of this was a 12-factor HD-DoE experiment with focus on initiation of differentiation of cells toward midbrain neural progenitor cells for an additional 3 days after termination of stage 1 treatment. Here, we focused on expression of LMX1A and FOXA2 in neural progenitor cells with low to zero expression of GBX2. LMX1A had significant high expression level in the model with value of 47888. Therefore, we used optimization setting for this gene to identify the positive factors. The factors in this experiment included SC79, MK2206, ZM336372, PD0325901, CHIR99021, A 83-01, TTNPB, AGN193109, GW3965, SR9243, Purmorphamine and GSI-XX.
To assess the impact of elimination of each validated factor, we used dynamic profile analysis and compared the expression level of genes of interest in absence of each finalized factor while others are present.
In the stage 2 recipe, each of the six finalized factors were removed while the other five factors were present and the expression levels of FOXA2, LMX1A and GBX2 were assessed, compared to the levels in the presence of all factors. According to the first experiment model, the absence of TTNPB lead to a rise of GBX2 expression, while the value of FOXA2 and LMX1A reduced drastically from 10,000 to 0 and 30,000 to 15,000, respectively. The absence of A 83-01 reduced the expression of FOXA2 from 10,000 to 7000, however, as expected, the value of LMX1A increased from 30,000 to 40,000. […] According to the second experiment model, the absence of BMP7 and MK2206 both reduced the level of FOXA2 while increasing the value of LMX1A, with BMP7 as the main effector that led to 0 expression of FOXA2.

[3] = dynamic profile / model, 12 effectors

SMILES: Cc1c[nH]c(-c2cnc(NCCNc3ccc(C#N)cn3)nc2-c2ccc(Cl)cc2Cl)n1 [CHIR99021]
- impact on expression level of PITX3 (stage 3 immature neurons; dynamic profile, 8 effectors): did not have a meaningful effect
- factor contribution (stage 3 immature neurons; model maximized for NR4A2, negative impact): 20.7
- impact on expression of KCNJ6 ([1]; dynamic profile, 12 effectors): positive impact
- factor contribution ([1]; model maximizing expression of CORIN, negative impact): 10.9
- factor contribution ([1]; model optimized for maximum expression of KCNJ6, positive regulators): 10.7
- expression level of KCNJ6 in absence of the factor ([1]; stage 3 recipe, other factors present, 50 with all factors): 50
- expression level of SOX6 in absence of the factor ([1]; stage 3 recipe, other factors present, 105 with all factors): 125
- expression level of MSX1 in absence of the factor ([1]; stage 3 recipe, other factors present, 140 with all factors): 115
- expression level of CORIN in absence of the factor ([1]; stage 3 recipe, other factors present, 900 with all factors): 1200
- impact on expression of FOXA2 [2, 3]: reduces
- impact on expression of LMX1A [2, 3]: positive effect; also recorded: positive impact
- impact on expression level of GBX2 ([2]; dynamic profile, 12 effectors): increases
- factor contribution ([2]; model optimized for LMX1A): 8.3
- factor contribution ([2]; model optimized for maximum expression of FOXA2): 10.7
